Entries after “also recorded” stand apart in the source; their conditions may differ.
Assays:
[1] = test system: 3′ UTR of human ER-α36 gene; experiment: Luciferase reporter assay, ER-α36 3′ UTR let-7 binding site in pMIR-REPORT; type: cell-based; conditions: MCF7 cells; for luciferase activity, ER-α36 3′-UTR binding site: 60 nmol/L mimics
Excerpt: A fragment of the 3′ UTR of human ER-α36 gene, which harbors the putative let-7 target sites, was synthesized (IDT, Coralville, Iowa). With the SpeI and HindIII restriction sites at the ends, respectively, the sense strand is 5′-ctag[…] (SEQ ID NO:41) and the antisense strand is 5′-agct[…] (SEQ ID NO:42). The sense and antisense oligonucleotides were annealed and ligated into the SpeI/HindIII sites of the pMIR-REPORT luciferase vector (Ambion, Austin, Tex.). The sequences were verified by DNA sequencing. Transfection was performed in 24-well plate using Lipofectamine 2000 (Invitrogen). Let-7 mimics, anti-let-7 inhibitors, or negative controls were transfected with 0.25 μg luciferase construct and 0.25 μg β-galactosidase plasmid (Ambion) to check transfection efficiency. Twenty-four hours post-transfection, the luciferase activity was measured using Dual-Glo Luciferase Assay System (Promega, Fitchburg, Wis.) in Veritas Microplate Luminometer (Turner Biosystems, Sunnyvale, Calif.).

ER-α = experiment: Immunoblot of ER-α after transfection in MCF7; type: cell-based, human; conditions: MCF7, mimics 60 nmol/L
Excerpt: Immunoblot analysis. For Western blot in FFPE tissues, an established method was followed (Addis et al., 2009, Proteomics 9:3815-23). For MCF7 cell line, let-7 mimics and negative control miRNA (60 nmol/L), or let-7 inhibitors and anti-miR negative control (60 nmol/L) were transfected following the protocol of siPORT NeoFX Transfection Agent (Applied Biosystems), The Western blot procedure was described before (Zhang et al., 2010, J Proteome Res., 9(2):980-989). Antibody information is as follows: ER-α, RB-9016-P1, Thermoscientific; Cyclin D1, sc-8396, Santa Cruz; pS2, ab80782 was Abeam; β-Actin, sc-69879, Santa Cruz.

MCF7-Tam cells = experiment: MTT cell proliferation assay with tamoxifen in MCF7-Tam; type: cell-based, human; conditions: 1 μmol/L tamoxifen
Method: MCF7-Tam cells were transfected with let-7 mimics or negative control in normal growth medium for 1 day, or in medium with 2.5% charcoal-stripped FBS for 2 days to exhaust endogenous estrogen. Ten thousand cells in the volume of 100 μL were seeded in a 96-well plate for 12 hours and assay lasted for another 4 days. For tamoxifen treatment, 1 μmol/L tamoxifen was added to each well of 96-well plate. Each treatment had 12 replicates on the plate. Medium volume was increased to 200 μL after the assay began. The cells were then incubated in 0.83 mg/mL 3-[4,5-dimethylthiazol-2-yl]-2,5-diphenyltetrazolium bromide (MTT) in growth medium at 37° C. for 4 hours and lysed in 100 μL of dimethyl sulfoxide at room temperature for 15 minutes. The absorbance in each well was measured at […] with an ELx800 Absorbance Microplate Reader (Biotek, Winooski, Vt.). Cell growth was expressed as a fraction of absorbance at day 0.

ER-α36 = experiment: Immunoblot of ER-α36 after transfection; type: cell-based, human; conditions: MDA-MB-231, two days post transfection of mimics
Method: Let-7 miRNA or negative control #1 miRNA of 60 nmol/L (Ambion, Austin, Tex.) was transfected into cells with the siPORT NeoFX reagent (Ambion, Austin, Tex.) following the manufacturer's protocol.
Cells were lysed with NP40 cell lysis buffer (250 mM NaCl, 50 mM Tris-HCl, pH 7.4, 5 mM EDTA, 50 mM NaF, 1 mM Na3VO4, 1% Nonidet P40, 1 mM PMSF, proteinase and phosphoproteinase inhibitor cocktails). The protein was also extracted from FFPE sections. FFPE sections (50 μm thick) were transferred into a microcentrifuge tube and treated with xylene, followed by vortexing vigorously for 10 seconds. After centrifugation and removal of supernatant, the sections were washed with xylene two more times, followed by one more wash with 1 mL of 100% ethanol. The resultant pellets were vacuum dried, then resuspended in 300 μL of 20 mM Tris-HCl (pH 8.0) and 2% SDS and homogenized. The samples were then boiled at 100° C. for 20 minutes and incubated at 60° C. for 1 hour. After centrifugation at 10,000 g for 15 min at 4° C., the supernatant protein was saved for immunoblot analysis.
After mixed with gel-loading buffer and boiled for 5 minutes, the protein samples were separated with 10% SDS-PAGE and transferred to a PVDF membrane (Millipore, Billerica, Mass.). […] Gel density was quantified with Quantity One and expressed as a relative value against β-actin. […]

[2] = test system: estrogen response element (ERE) construct; experiment: ERE luciferase assay (2 ERE-tk-Luc), genomic estrogen pathway in MCF7; type: cell-based, human; conditions: for ERE luciferase activity: MCF7, p2 ERE-tk-Luc, 10 nmol/L E2 12 hours, p<0.01; for luciferase activity of the ERE construct: MCF7 cell line
Method: For checking on the genomic estrogen pathway, 10^5 MCF7 cells were first seeded into each well on a 24-well plate and cultured in IMEM with 2.5% charcoal-stripped FBS for 2 days. Then the cells were transfected as described above except that the estrogen response element (ERE) construct (2 ERE-tk-Luc; obtained from Katarine Pettersson, Karolinska Institute, Stockholm) replaced the pMIR-REPORT plasmid for 1 day. After stimulation with 10 nmol/L E2 for 12 hours, luciferase activity was measured as described above.

[3] = E2 free medium (2.5% charcoal-stripped FBS)
[4] = complete (normal growth) medium with 10% FBS

Row | Substance | luciferase activity, ER-α36 binding site [1] | luciferase activity, mutated ER-α36 binding sequence [1] | luciferase activity, ER-α36 3′-UTR binding site [1] | expression of ER-α (protein) (ER-α; after 2 days) | expression of ER-α (protein) (ER-α; after 6 days) | tamoxifen sensitivity / cell growth (MTT) with tamoxifen (MCF7-Tam cells; [3]) | tamoxifen sensitivity / cell growth (MTT) with tamoxifen (MCF7-Tam cells; [4]) | ER-α36 protein level (ER-α36) | ERE luciferase activity [2] | luciferase activity of the ERE construct [2]
1 | let-7b: let-7b miRNA (mimic), 3′-UUGGUGUGUUGGAUGAUGGAGU-5′ (SEQ ID NO:8) (chemistry not given here; listed 3' to 5') | significantly inhibited the luciferase activity | abrogated the inhibitory effects; also recorded: did not show inhibition | about 60 % of the activity in the control cells | significantly depressed the expression of ER-α | dramatically down-regulated the expression of ER-α | grew significantly slower; also recorded: significantly enhanced tamoxifen sensitivity | does not affect tamoxifen sensitivity | strongly inhibited; also recorded: inhibited | about 40 % of negative control | inhibit the luciferase activity of the ERE construct
2 | let-7i: let-7i miRNA (mimic), 3′-UUGUCGUGUUUGAUGAUGGAGU-5′ (SEQ ID NO:14) (chemistry not given here; listed 3' to 5') | significantly inhibited the luciferase activity | abrogated the inhibitory effects; also recorded: did not show inhibition | about 60 % of the activity in the control cells | significantly depressed the expression of ER-α | dramatically down-regulated the expression of ER-α | grew significantly slower; also recorded: significantly enhanced tamoxifen sensitivity | does not affect tamoxifen sensitivity | strongly inhibited; also recorded: inhibited | about 60 % of negative control | inhibit the luciferase activity of the ERE construct
